Assays:
morningglory = assay: Test B pre/postemergence morningglory; format: in vivo, Ipomoea hederacea; conditions: for Morningglory plant response rating: scale of 0 to 10 where 0 is no effect and 10 is complete control
How it was run: (§1)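 Test chemicals in a non-phytotoxic solvent mixture with surfactant were sprayed preemergence onto planted seeds and postemergence onto plants 2 to 18 cm tall (1- to 4-leaf stage). After twelve to sixteen days in a greenhouse, injury was visually rated against untreated controls from 0 (no effect) to 10 (complete control).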

soybean = assay: Test B pre/postemergence soybean; format: in vivo, Glycine max; conditions: for Soybean plant response rating: scale of 0 to 10 where 0 is no effect and 10 is complete control
How it was run: as §1

velvetleaf = assay: Test B pre/postemergence velvetleaf; format: in vivo, Abutilon theophrasti; conditions: for Velvetleaf plant response rating: scale of 0 to 10 where 0 is no effect and 10 is complete control
How it was run: as §1

wheat = assay: Test B pre/postemergence wheat; format: in vivo, Triticum aestivum; conditions: for Wheat plant response rating: scale of 0 to 10 where 0 is no effect and 10 is complete control
How it was run: as §1

wild oat = assay: Test B pre/postemergence wild oat; format: in vivo, Avena fatua; conditions: for Wild oats plant response rating: scale of 0 to 10 where 0 is no effect and 10 is complete control
How it was run: as §1

purple nutsedge = assay: Test B pre/postemergence purple nutsedge; format: in vivo, Cyperus rotundus; conditions: for Nutsedge plant response rating: scale of 0 to 10 where 0 is no effect and 10 is complete control
How it was run: as §1

rice = assay: Test B flood test rice; format: in vivo, Oryza sativa
How it was run: (§2)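 Flood test on plants grown to the 2-leaf stage; treated plants kept in greenhouse twelve to sixteen days, then visually rated against controls on a 0 (no effect) to 10 (complete control) scale.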

smallflower flatsedge = assay: Test B flood test smallflower flatsedge; format: in vivo, Cyperus difformis
How it was run: as §2

duck salad = assay: Test B flood test duck salad; format: in vivo, Heteranthera limosa
How it was run: as §2

bamyardgrass = assay: Test B flood test barnyardgrass; format: in vivo, Echinochloa crus-galli
How it was run: as §2

[1] = Rate 500 g/ha, Postemergence, scale 0 to 10, 0 no effect, 10 complete control
[2] = Postemergence, Rate 125 g/ha, scale 0 to 10, 0 is no effect, 10 is complete control
[3] = Rate 62 g/ha, headed Pre-emergence (flood test species), scale 0 to 10 (0 no effect, 10 complete control)
[4] = Rate 125 g/ha, Pre-emergence, flood test species, scale 0 to 10 where 0 is no effect and 10 is complete control
[5] = Rate 250 g/ha, Pre-emergence, flood-test species, scale 0 to 10, 0 is no effect, 10 is complete control
[6] = Rate 500 g/ha, Pre-emergence, flood test species, scale 0 to 10 (0 no effect, 10 complete control)

CC(C)N(C(=O)n1oc(=O)n(C2CCCCCC2)c1=O)c1ccc(Cl)cc1 [Compound 339]
1: Plant response rating, Soybean (soybean; [2]) | Soybean plant response rating (soybean; Rate 62 g/ha, Postemergence) | Rice plant response rating (rice; [6]) | S. Flatsedge plant response rating (smallflower flatsedge; [6])
9: Barnyardgrass plant response rating (bamyardgrass; [5]) | Barnyardgrass plant response rating (bamyardgrass; [6])
3: Ducksalad plant response rating (duck salad; [6])
4: Plant response rating, Soybean (soybean; [1])
8: Barnyardgrass plant response rating (bamyardgrass; [4])
2: Morningglory plant response rating (morningglory; Rate 62 g/ha, Postemergence) | Barnyardgrass plant response rating (bamyardgrass; [3])
0: Morningglory plant response rating (morningglory; Preemergence, Rate 250 g/ha) | Morningglory plant response rating (morningglory; Preemergence, Rate 500 g/ha) | Soybean plant response rating (soybean; Preemergence, Rate 62 g/ha) | Soybean plant response rating (0 to 10 scale) (soybean; Preemergence, Rate 125 g/ha) | Soybean plant response rating (soybean; Preemergence, Rate 250 g/ha) | Soybean plant response rating (soybean; Preemergence, Rate 500 g/ha) | Plant response rating, Velvetleaf (velvetleaf; [2]) | Velvetleaf plant response rating (velvetleaf; Preemergence, Rate 62 g/ha) | Velvetleaf plant response rating (0 to 10 scale) (velvetleaf; Preemergence, Rate 125 g/ha) | Velvetleaf plant response rating (velvetleaf; Preemergence, Rate 250 g/ha) | Velvetleaf plant response rating (velvetleaf; Preemergence, Rate 500 g/ha) | Velvetleaf plant response rating (velvetleaf; Rate 62 g/ha, Postemergence) | Plant response rating, Velvetleaf (velvetleaf; [1]) | Plant response rating, Wheat (wheat; [2]) | Wheat plant response rating (wheat; Preemergence, Rate 62 g/ha) | Wheat plant response rating (0 to 10 scale) (wheat; Preemergence, Rate 125 g/ha) | Wheat plant response rating (wheat; Preemergence, Rate 250 g/ha) | Wheat plant response rating (wheat; Preemergence, Rate 500 g/ha) | Wheat plant response rating (wheat; Rate 62 g/ha, Postemergence) | Plant response rating, Wheat (wheat; [1]) | Plant response rating, Wild oats (wild oat; [2]) | Wild oats plant response rating (wild oat; Preemergence, Rate 62 g/ha) | Wild oats plant response rating (0 to 10 scale) (wild oat; Preemergence, Rate 125 g/ha) | Wild oats plant response rating (wild oat; Preemergence, Rate 250 g/ha) | Wild oats plant response rating (wild oat; Preemergence, Rate 500 g/ha) | Wild oats plant response rating (wild oat; Rate 62 g/ha, Postemergence) | Plant response rating, Wild oats (wild oat; [1]) | Plant response rating, Nutsedge (purple nutsedge; [2]) | Nutsedge plant response rating (purple nutsedge; Preemergence, Rate 62 g/ha) | Nutsedge plant response rating (0 to 10 scale) (purple nutsedge; Preemergence, Rate 125 g/ha) | Nutsedge plant response rating (purple nutsedge; Preemergence, Rate 250 g/ha) | Nutsedge plant response rating (purple nutsedge; Preemergence, Rate 500 g/ha) | Nutsedge plant response rating (purple nutsedge; Rate 62 g/ha, Postemergence) | Plant response rating, Nutsedge (purple nutsedge; [1]) | Rice plant response rating (rice; [3]) | Rice plant response rating (rice; [4]) | Rice plant response rating (rice; [5]) | S. Flatsedge plant response rating (smallflower flatsedge; [3]) | S. Flatsedge plant response rating (smallflower flatsedge; [4]) | S. Flatsedge plant response rating (smallflower flatsedge; [5]) | Ducksalad plant response rating (duck salad; [3]) | Ducksalad plant response rating (duck salad; [4]) | Ducksalad plant response rating (duck salad; [5])
10: Plant response rating, Morningglory (morningglory; [1])

From US6737383B1, “Herbicidal oxadiazolidines” (priority 1999, dated 2004)
